Laboratory results published in patent US20250064846A1, “TREATMENT AND PREVENTION OF TRIGEMINAL NEURALGIA” (THE JOHNS HOPKINS UNIVERSITY, priority 2022, published 2025).

Assays:
[1] = tested on: maxillary nerves; experiment: Myelin basic protein (MBP) immunostaining of maxillary nerves; format: in vivo, mouse; details: ten days post-surgery; sulforaphane 10, exemestane 10, JQ-1 40 mg/kg, i.p. daily; vs vehicle-treated ligated nerves
Method: Histology Maxillary nerves from mice were dissected and fixed in cold 4% formaldehyde (v/v) overnight at 4° C. Tissues were then cryoprotected through a series of 10%, 20%, and 30% sucrose (w/v) gradients for 24 hrs each at 4° C. Tissues were then embedded in Optimal Cutting Temperature compound (OCT) and sectioned in 20 μm intervals with a cryostat, after which the sections were dried onto slides and kept at […]. Sections were then processed for immunohistochemistry.
Immunohistochemistry was performed as previously described (Vasavda C et al., Cell Chem Biol 2019; 26(10):1450-1460.e7, incorporated herein by reference in its entirety). Briefly, sections were post-fixed with 4% parafomaldehyde for 15 min at 25° C. and then permeabilized with 100% methanol for 7 min at −20° C. The slides were then pre-incubated in blocking solution (10% normal goat serum (ThermoFisher Scientific)) for 30 min at 25° C. Sections were incubated overnight at 4° C. with the appropriate primary antibodies in blocking solution. Sections were washed and incubated with the appropriate secondary antibodies diluted 1:250 in blocking solution for 1 h at 25° C. Tissues were then mounted with ProLong Gold Antifade Mountant with DAPI (Invitrogen).
MBP immunostaining: Mice were first dosed daily with either sulforaphane (10 mg/kg, i.p.), exemestane (10 mg/kg, i.p.), JQ-1 (40 mg/kg, i.p.), or the appropriate vehicle for two days before surgical ligation of the maxillary nerve, after which they were dosed every 24 h for 10 days thereafter. MBP immunostaining was performed ten days post-surgery. MBP stains were interpreted by a pathologist to morphologically assess the degree of damage from nerve injury and response to drug treatment. Antibodies: primary antibodies: chicken anti-MBP (1:500); secondary antibodies: goat anti-chicken (Alexa 488, A32931 Invitrogen).

[2] = tested on: NRF2 target genes; experiment: Quantitative PCR of NRF2 target genes from maxillary nerves; format: in vivo, mouse; details: qPCR normalized to Actb, 11 days of treatment, i.p.; for Hmox1 expression in maxillary nerves / Prdx1 expression in maxillary nerves / Txnrd1 expression in maxillary nerves: exemestane 10 or JQ-1 40 mg/kg
Method: FIGS. 17A-17J show differential upregulation of NRF2 target genes after treatment with exemestane and JQ-1. Quantitative PCR analysis of Ngo1, Hmox1 Txnrd1, Prdx1, and Gclc, as indicated, normalized to Actb from maxillary nerves of mice after 11 days of treatment with either exemestane (FIGS. 17A-17E; 10 mg/kg, i.p.) or JQ-1 (FIGS. 17F-17J; 40 mg/kg, i.p.) compared to vehicle is shown. Points represent individual mice. Median and range depicted. *=P<0.05. **=P<0.01, and ns=P>0.05 by two-tailed unpaired Student's t-test.
DNA/RNA Isolation. PCR, and Quantitative-PCR (q-PCR) Total cellular or tissue DNA/RNA was extracted using the DNeasy Blood & Tissue Kit (Qiagen) for DNA or RNeasy Plus Universal Kit (Qiagen) for RNA per the manufacturer's instructions. PCR was performed with the Platinum Taq DNA Polymerase High Fidelity Kit (Invitrogen), whereas q-PCR was performed with the TaqMan RNA-to-Ct I-Step Kit (Applied Biosystems).

[3] = tested on: maxillary nerves of mice after nerve ligation; experiment: Oxidative stress assay in maxillary nerves (4-HNE, protein carbonylation, MDA); format: in vivo, mouse; details: for levels of 4-HNE in maxillary nerves after nerve ligation / protein carbonylation in maxillary nerves after nerve ligation: western blot normalized to β-actin, daily i.p. pre-treatment, vs vehicle
Method: Western Blotting Western blotting was performed as previously described (See Vasavda, C. et al. Cell Chem Biol 26, 1450-1460.e7 (2019)). Briefly, tissues were homogenized at 4° C. in lysis buffer (pH 7.4 solution of 50 mM Tris-HCl, 150 mM NaCl, 0.1% SDS, 0.5% sodium deoxycholate, and 1% Triton X-100) supplemented with protease inhibitors (Sigma). When dissecting maxillary nerves for immunoblot analysis, nerves were as dissected both as proximally towards the semilunar ganglion and as distal to the skin as possible. Nerves were harvested 11 days after surgery, immediately after the final behavioral test. Lysates were then pulse sonicated and centrifuged at 16,000 g for 10 min at 4° C. Fifteen micrograms of cleared lysate were run on a 4-12% polyacrylamide Bis-Tris gradient gel in running buffer (pH 7.3 solution of 50 mM MES, 50 mM Tris Base, 0.1% SDS, 1 mM EDTA) and then transferred to a PVDF membrane. Membranes were blocked with 5% milk in TBS-T (pH 7.6 solution of 16 mM Tris-HCl, 140 mM NaCl, 0.1% Tween-20) for 1 hr at 25° C. and then incubated with primary antibodies in 3% bovine serum albumin (BSA) (w/v) in TBS-T overnight at 4° C. The following day, membranes were washed with TBS-T, and then incubated with secondary antibodies in 3% BSA (w/v) in TBS-T for 1 hr at 25° C. The following primary antibodies were used: rabbit anti-4-HNE (Abeam ab46545; 1:1.000), rabbit anti-TRPA1 (Novus Biologicals NB110-40763; 1:1,000), rabbit anti-DNP (Millipore Sigma 90451; 1:150), and mouse anti-β-actin (Santa Cruz Biotech sc-47778 HRP; 1:10,000). The following secondary antibodies were used: donkey anti-rabbit IgG (GE Healthcare NA934; 1:10,000) and goat anti-rabbit (Millipore Sigma 90452; 1:300).
Oxidative Stress Assay % 4-HNE was quantified by Western blot as described above with a rabbit anti-4-HNE (Abeam ab46545; 1:1,000) primary antibody. Protein carbonylation was assessed with the OxyBlot Protein Oxidation Detection Kit as per the manufacturer's instructions. Protein carbonylation was quantified by western blot as described above with a rabbit anti-DNP (Millipore Sigma 90451; 1:150) primary antibody. MDA was quantified with the OxiSelect TBARS Assay Kit as per the manufacturer's instructions. Concentrations below the limit of detection (LOD) were censored and substituted with a constant value of the […].

[4] = tested on: constrictive mouse model of trigeminal neuralgia; experiment: Cold allodynia (ice-cold acetone) after constriction of the maxillary nerve; format: in vivo; details: i.p. daily, sulforaphane 10 mg/kg; for cold allodynia (analgesic effect): NRF2−/− mice, exemestane 10 mg/kg, JQ-1 40 mg/kg
[5] = tested on: NRF2; experiment: NRF2/MAP2 immunostaining in trigeminal ganglia; format: in vivo, mouse; details: immunohistochemistry 24 h after the fourth dose; 10 mg/kg, i.p.

Row | Structure (SMILES) | nerve architecture by myelin basic protein staining [1] | Hmox1 expression in maxillary nerves [2] | Prdx1 expression in maxillary nerves [2] | Txnrd1 expression in maxillary nerves [2] | levels of 4-HNE in maxillary nerves after nerve ligation [3] | protein carbonylation in maxillary nerves after nerve ligation [3] | cold allodynia (analgesic effect) [4] | NRF2 expression in neurons of the trigeminal ganglion [5] | Nqo1 expression in maxillary nerves ([2]; exemestane 10 mg/kg) | malondialdehyde in maxillary nerves after nerve ligation ([3]; sulforaphane 10 mg/kg, i.p., normalized to protein) | cold allodynia ([4]; TRPA1−/− mice, compared with genetic deletion of TRPA1 alone)
1 | Cc1sc2c(c1C)C(c1ccc(Cl)cc1)=N[C@@H](CC(=O)OC(C)(C)C)c1nnc(C)n1-2 [JQ-1, (S)-tert-butyl 2-(4-(4-chlorophenyl)-2,3,9-trimethyl-6H-thieno[3,2-f][1,2,4]triazolo[4,3-a][1,4]diazepin-6-yl)acetate] | better preserved nerve architecture with increased density of myelinated axons of varying sizes | most potently upregulated | upregulated | did not increase | reduced | reduced | lowers |  |  |  | 
2 | C=C1C[C@@H]2[C@H](CC[C@]3(C)C(=O)CC[C@@H]23)[C@@]2(C)C=CC(=O)C=C12 [exemestane, 6-methylenandrosta-1,4-diene-3,17-dione] | better preserved nerve architecture with increased density of myelinated axons of varying sizes | upregulated | upregulated | upregulated | reduced | reduced | lose their analgesic effects | robustly increased NRF2 expression | upregulated |  | 
3 | C[S+]([O-])CCCCN=C=S (centres unmarked) [sulforaphane, 1-isothiocyanato-4-(methanesulfinyl)butane] | more normal architecture with myelinated axons of varying sizes |  |  |  | reduced | reduced | lose their analgesic effects | robustly increased NRF2 expression |  | reduced | did not lower
